From patent publication US20250188037A1, “N-(PYRROLIDIN-3-YL OR PIPERIDIN-4-YL)ACETAMIDE DERIVATIVES” (Takeda Pharmaceutical Company Limited, priority 2022, published 2025)
Where two headings read alike, the source gives them in different places.

How the values were obtained:
[1] = target: T1, SSTR1 (Homo sapiens (Human), UniProt P30872); assay: biochemical;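 further: binding assay on CHO-K1 cell membranes overexpressing SSTR1, incubated 60 min at room temperature, bound fraction collected on filters and read by scintillation counting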
Method: (§1) Membranes from CHO-K1 cells overexpressing SSTR1 are purchased from Perkin Elmer (catalog number ES-520-M400UA). […] Then 10 μg of SSTR1 membranes in 50 μL assay buffer are added per well. The plate is incubated for 60 minutes at room temperature. […] The contents of the assay plate are transferred to filters with a TomTech harvester and washed 5 times with 20 mM HEPES, 100 mM NaCl. […] The scintillator sheets are melted to the filters using a heat block. The filters are then read in a MicroBeta scintillation counter. Binding Ki curves are generated using Activity Base for Screening Data Management and the results are reported as pIC50.

[2] = target: T2, SSTR4 (Homo sapiens (Human), UniProt P31391); assay: Inhibition of forskolin stimulated cAMP in cells overexpressing SSTR4; type: cell-based; details: inhibition of forskolin stimulated cAMP in CHO-K1 cells overexpressing SSTR4; read-out: SSTR4 Activity pEC50 (converted)
Method: Inhibition of Forskolin Stimulated cAMP in Cells Overexpressing SSTR4
This cell-based assay measures the ability of compounds to inhibit forskolin stimulated cAMP in CHO-K1 cells overexpressing SSTR4. CHO-K1 cells overexpressing SSTR4 (CHO-SSTR4) are purchased from DiscoveRx (product code 95-0059C2). The CHO-SSTR4 cells are maintained in F12K media with 10% Fetal Bovine Serum (Hyclone), 1% Pen/Strep (Life Technologies), and 800 μg/mL G418 (Life Technologies). […] The next day, the culture media is removed from the cells and the cells are washed (added then removed) with Krebs Ringer Buffer (ZenBio, KRB-1000 mL). […] The cells are incubated in 10 μL compound/stimulation buffer for 30 minutes at room temperature. Cellular cAMP levels are detected with a HTRF LANCE Ultra cAMP kit (Perkin Elmer, catalog number TRF0264).
The assay is performed in accordance with the manufacturer's instructions. […] of diluted Eu—W8044 labeled streptavidin (dilution: 1:50 in cAMP Detection Buffer) is added to each well. Then 5 μL of diluted biotin cAMP (dilution: 1:150 in cAMP Detection Buffer) is added to each well. The plates are covered and allowed to incubate for 60 minutes at room temperature on a shaker. […] The pEC50 values are generated using Activity Base for Screening Data Management.

[3] = target: T2, SSTR4; assay: SSTR4 I-125 somatostatin competition binding assay; details: for IC50: membranes from CHO-K1 cells overexpressing SSTR4, read-out: SSTR4 Binding pIC50 (converted); for SSTR4 Binding pIC50: membranes from CHO-K1 cells overexpressing SSTR4
Text: The scintillator sheets are melted to filters using a heat block.

[4] = target: T1, SSTR1
Method: as §1

T2 sequence (P31391 whole entry): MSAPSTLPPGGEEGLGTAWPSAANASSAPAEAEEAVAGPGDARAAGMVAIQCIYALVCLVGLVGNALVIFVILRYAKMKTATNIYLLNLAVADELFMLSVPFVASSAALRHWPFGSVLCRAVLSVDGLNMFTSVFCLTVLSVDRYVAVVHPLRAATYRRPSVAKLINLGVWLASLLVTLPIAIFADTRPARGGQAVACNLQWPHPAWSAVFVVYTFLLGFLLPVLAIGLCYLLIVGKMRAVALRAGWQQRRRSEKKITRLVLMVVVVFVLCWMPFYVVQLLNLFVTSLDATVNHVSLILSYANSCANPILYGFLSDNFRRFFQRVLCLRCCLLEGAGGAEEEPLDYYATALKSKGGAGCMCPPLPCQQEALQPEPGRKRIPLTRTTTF
T1 sequence (P30872 whole entry): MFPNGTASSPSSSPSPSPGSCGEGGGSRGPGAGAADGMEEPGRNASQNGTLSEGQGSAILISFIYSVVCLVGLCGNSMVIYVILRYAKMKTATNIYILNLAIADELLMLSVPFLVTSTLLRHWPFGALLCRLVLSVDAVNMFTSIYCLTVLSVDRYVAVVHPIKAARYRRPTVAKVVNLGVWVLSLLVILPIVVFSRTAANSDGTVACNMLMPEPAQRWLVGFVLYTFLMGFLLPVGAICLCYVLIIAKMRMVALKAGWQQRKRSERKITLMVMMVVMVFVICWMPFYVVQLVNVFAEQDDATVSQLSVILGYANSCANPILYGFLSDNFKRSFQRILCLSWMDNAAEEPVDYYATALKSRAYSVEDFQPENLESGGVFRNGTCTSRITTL

Compound: Cc1cccc(CC2(C(=O)N[C@@H]3CN(C)C[C@H]3C(C)C)CC2)c1 (racemic) [Example 3, N-(trans-4-isopropyl-1-methylpyrrolidin-3-yl)-1-(3-methylbenzyl)cyclopropane-1-carboxamide]
- IC50 [1]: 5370 nM
- EC50 [2]: 12.6 nM
- IC50 [3]: 91.2 nM

Compound: C[C@@H]1CN(C)CC[C@H]1NC(=O)C1(Cc2ccc(F)cc2)CC1 (racemic) [Example 10, N-(trans-1,3-dimethylpiperidin-4-yl)-1-(4-fluorobenzyl)cyclopropane-1-carboxamide]
- IC50 [1]: 15500 nM
- EC50 [2]: 70.8 nM
- IC50 [3]: 513 nM

Compound: Cc1ccccc1CC1(C(=O)N[C@@H]2CCN(C)C[C@H]2C)CC1 (racemic) [Example 12, N-(trans-1,3-dimethylpiperidin-4-yl)-1-(2-methylbenzyl)cyclopropane-1-carboxamide]
- IC50 [1]: 15800 nM
- EC50 [2]: 57.5 nM
- IC50 [3]: 891 nM

Compound: Cc1ccc(OC(F)(F)C(=O)NC2CCNCC2)cc1 [Example 34, 2,2-difluoro-N-(piperidin-4-yl)-2-(p-tolyloxy)acetamide]
- IC50 [4]: > 50100 nM
- EC50 [2]: 47.9 nM
- SSTR4 Binding pIC50 [3]: 6.17

Compound: C[C@H]1CN(C)CC[C@@H]1NC(=O)C1(Cc2ccc(F)cc2)CC1 [Example 35, N-((3S,4S)-1,3-dimethylpiperidin-4-yl)-1-(4-fluorobenzyl)cyclopropane-1-carboxamide]
- IC50 [4]: 5890 nM
- EC50 [2]: 26.3 nM
- SSTR4 Binding pIC50 [3]: 6.66

Compound: C[C@H]1CN(C)CC[C@@H]1NC(=O)C1(Cc2cccc(Cl)c2)CC1 [Example 36, 1-(3-chlorobenzyl)-N-((3S,4S)-1,3-dimethylpiperidin-4-yl)cyclopropane-1-carboxamide]
- IC50 [4]: 4680 nM
- EC50 [2]: 23.4 nM
- SSTR4 Binding pIC50 [3]: 6.56

Compound: C[C@@H]1C[C@H](NC(=O)C2(CN(C)c3cccc(Cl)n3)CC2)CCN1C [Example 41, 1-(((6-chloropyridin-2-yl)(methyl)amino)methyl)-N-((2R,4R)-1,2-dimethylpiperidin-4-yl)cyclopropane-1-carboxamide]
- IC50 [4]: > 50100 nM
- EC50 [2]: 56.2 nM
- SSTR4 Binding pIC50 [3]: 6.53

Compound: O=C(N[C@H]1CCNC[C@@H]1F)C1(Cc2ccccc2F)CC1 [Example 43, 1-(2-fluorobenzyl)-N-((3S,4S)-3-fluoropiperidin-4-yl)cyclopropane-1-carboxamide]
- IC50 [4]: > 50100 nM
- EC50 [2]: 63.1 nM
- SSTR4 Binding pIC50 [3]: 6.87

Compound: COc1cccc(CC2(C(=O)N[C@H]3CCNC[C@@H]3F)CC2)c1 [Example 46, N-((3S,4S)-3-fluoropiperidin-4-yl)-1-(3-methoxybenzyl)cyclopropane-1-carboxamide]
- IC50 [4]: > 50100 nM
- EC50 [2]: 11.7 nM
- SSTR4 Binding pIC50 [3]: 7.29

Compound: C[C@H]1C[C@@H](NC(=O)C(F)(F)Oc2ccccc2)CCN1 [Example 48, 2,2-difluoro-N-((2S,4S)-2-methylpiperidin-4-yl)-2-phenoxyacetamide]
- IC50 [4]: > 50100 nM
- EC50 [2]: 91.2 nM
- SSTR4 Binding pIC50 [3]: 5.43

Compound: C[C@@H]1C[C@H](NC(=O)C(F)(F)Oc2ccccc2)CCN1 [Example 51, 2,2-difluoro-N-((2R,4R)-2-methylpiperidin-4-yl)-2-phenoxyacetamide]
- IC50 [4]: > 50100 nM
- EC50 [2]: 35.5 nM
- SSTR4 Binding pIC50 [3]: 5.53

Compound: C[C@H]1C[C@H](NC(=O)C(F)(F)Oc2ccccc2)CCN1 [Example 53, 2,2-difluoro-N-((2S,4R)-2-methylpiperidin-4-yl)-2-phenoxyacetamide]
- IC50 [4]: > 50100 nM
- EC50 [2]: 55 nM
- SSTR4 Binding pIC50 [3]: 5.43

Compound: C[C@H]1CNCC[C@@H]1NC(=O)C(F)(F)Oc1ccccc1F [Example 54, 2,2-difluoro-2-(2-fluorophenoxy)-N-((3S,4S)-3-methylpiperidin-4-yl)acetamide]
- IC50 [4]: > 50100 nM
- EC50 [2]: 21.4 nM
- SSTR4 Binding pIC50 [3]: 6.55

Compound: C[C@H]1CNCC[C@@H]1NC(=O)C(F)(F)Oc1cccc(F)c1 [Example 55, 2,2-difluoro-2-(3-fluorophenoxy)-N-((3S,4S)-3-methylpiperidin-4-yl)acetamide]
- IC50 [4]: > 50100 nM
- EC50 [2]: 5.25 nM
- SSTR4 Binding pIC50 [3]: 7.13

Compound: Cc1ccccc1OC(F)(F)C(=O)N[C@H]1CCNC[C@@H]1C [Example 56, 2,2-difluoro-N-((3S,4S)-3-methylpiperidin-4-yl)-2-(o-tolyloxy)acetamide]
- IC50 [4]: 44700 nM
- EC50 [2]: 1.7 nM
- SSTR4 Binding pIC50 [3]: 7.14

Compound: C[C@H]1CNCC[C@@H]1NC(=O)C(F)(F)Oc1ccc(F)cc1 [Example 58, 2,2-difluoro-2-(4-fluorophenoxy)-N-((3S,4S)-3-methylpiperidin-4-yl)acetamide]
- IC50 [4]: 46800 nM
- EC50 [2]: 5.01 nM
- SSTR4 Binding pIC50 [3]: 6.77

Compound: C[C@H]1CNCC[C@@H]1NC(=O)C(F)(F)Oc1ccccc1Cl [Example 64, 2-(2-chlorophenoxy)-2,2-difluoro-N-((3S,4S)-3-methylpiperidin-4-yl)acetamide]
- IC50 [4]: 19100 nM
- EC50 [2]: 1.32 nM
- SSTR4 Binding pIC50 [3]: 7.25

Compound: O=C(NC1CCNCC1)C(F)(F)Oc1ccccc1Cl [Example 70, 2-(2-chlorophenoxy)-2,2-difluoro-N-(piperidin-4-yl)acetamide]
- IC50 [4]: > 50100 nM
- EC50 [2]: 18.2 nM
- SSTR4 Binding pIC50 [3]: 6.48
